Values quoted from earlier work as cited in patent US20140315941A1, “METHOD OF REDUCING CNS AND GASTRO[…] AFFECTS ASSOCIATED WITH LONG-TERM, DEXTROMETHORPHAN/LOW-DOSE QUINIDINE COMBINATION THERAPY” (Avanir Pharmaceuticals, Inc., priority 2009, published 2014).

Key:
[1] = some patients with Huntington's disease; DM doses eight times the maximum antitussive dose
[2] = test system: pain threshold in CYP2D6 extensive and poor metabolizers; conditions: extensive vs poor metabolizers
CYP2D6 = CYP2D6 (Homo sapiens, UniProt P10635); conditions: in vitro
Chain of CYP2D6 (P10635 whole entry): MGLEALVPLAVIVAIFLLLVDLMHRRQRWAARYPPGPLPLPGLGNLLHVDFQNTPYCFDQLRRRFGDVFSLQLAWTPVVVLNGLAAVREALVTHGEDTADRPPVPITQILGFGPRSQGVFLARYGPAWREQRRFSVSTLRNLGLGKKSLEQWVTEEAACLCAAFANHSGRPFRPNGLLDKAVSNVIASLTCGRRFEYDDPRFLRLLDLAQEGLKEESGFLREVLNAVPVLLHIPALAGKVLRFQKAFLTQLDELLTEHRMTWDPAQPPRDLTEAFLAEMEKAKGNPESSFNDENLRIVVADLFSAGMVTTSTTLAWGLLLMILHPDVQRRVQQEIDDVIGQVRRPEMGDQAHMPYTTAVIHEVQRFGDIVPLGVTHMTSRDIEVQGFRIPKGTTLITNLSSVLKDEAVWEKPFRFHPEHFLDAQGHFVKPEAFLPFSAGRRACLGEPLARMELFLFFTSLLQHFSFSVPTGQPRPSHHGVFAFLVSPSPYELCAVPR

## COc1ccc2c(c1)[C@]13CCCCC1[C@H](C2)N(C)CC3 (single isomer, unassigned; (+)) [DM, (+)-3-methoxy-N-methylmorphinan]
[1]
  plasma concentrations: undetectable
[2]
  antinociceptive effects (increase of pain threshold): significant in poor metabolizers but not in extensive metabolizers

## C=C[C@H]1C[N@@]2CC[C@H]1C[C@@H]2[C@@H](O)c1ccnc2ccc(OC)cc12 [Quinidine, quinidine]
CYP2D6
  inhibition of CYP2D6 activity (potency, words): one of the most potent
